From US20240092795A1, “PYRIDINE COMPOUNDS AS ALLOSTERIC SHP2 INHIBITORS” (Revolution Medicines, Inc., priority 2017, published 2024) come the findings set out here.

pIC50: −log10 of the molar value.

The target in the assay is SHP2 (Homo sapiens (Human), UniProt Q06124). Kind of assay: SHP2 Allosteric Inhibition Assay (DiFMUP prompt fluorescence). It counts as biochemical. The following applies: 0.2 nM SHP2 with 0.5 μM Activating Peptide 1 or 2, surrogate substrate DiFMUP, 25° C.; read-out: SHP2 Allosteric Biochem: IC50. The source says: Without wishing to be bound by theory, SHP is allosterically activated through binding of bis-tyrosyl-phosphorylated peptides to its Src Homology 2 (SH2) domains. The latter activation step leads to the release of the auto-inhibitory interface of SHP2, which in turn renders the SHP2 protein tyrosine phosphatase (PTP) active and available for substrate recognition and reaction catalysis. The catalytic activity of SHP2 was monitored using the surrogate substrate DiFMUP in a prompt fluorescence assay format.
Sequence of SHP2 (Q06124 whole entry): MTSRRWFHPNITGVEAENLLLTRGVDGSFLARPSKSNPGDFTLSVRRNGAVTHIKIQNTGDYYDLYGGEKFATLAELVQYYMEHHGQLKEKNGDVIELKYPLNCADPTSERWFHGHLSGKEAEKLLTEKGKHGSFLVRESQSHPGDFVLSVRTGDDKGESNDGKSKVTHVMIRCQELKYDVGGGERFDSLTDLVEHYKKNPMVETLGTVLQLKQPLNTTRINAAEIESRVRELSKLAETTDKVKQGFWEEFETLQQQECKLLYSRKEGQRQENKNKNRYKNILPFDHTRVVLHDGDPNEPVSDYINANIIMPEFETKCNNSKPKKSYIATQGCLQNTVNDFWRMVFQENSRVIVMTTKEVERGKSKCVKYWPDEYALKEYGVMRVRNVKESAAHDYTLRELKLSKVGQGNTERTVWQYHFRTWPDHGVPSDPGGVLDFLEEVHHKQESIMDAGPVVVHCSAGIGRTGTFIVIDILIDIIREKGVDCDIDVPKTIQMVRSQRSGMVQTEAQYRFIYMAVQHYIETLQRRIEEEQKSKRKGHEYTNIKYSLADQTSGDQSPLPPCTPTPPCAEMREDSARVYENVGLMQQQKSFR
The phosphatase reactions were performed at room temperature in 96-well black polystyrene plate, flat bottom, non-binding surface (Corning, Cat #3650) using a final reaction volume of 100 μL and the following assay buffer conditions: 50 mM HEPES, pH 7.2, 100 mM NaCl, 0.5 mM EDTA, 0.05% P-20, 1 mM DTT.
The inhibition of SHP2 by compounds of the disclosure (concentrations varying from 0.00005-10 μM) was monitored using an assay in which 0.2 nM of SHP2 was incubated with 0.5 μM of Activating Peptide 1 (sequence: H2N-LN(pY)IDLDLV(dPEG8)LST (pY)ASINFQK-amide) or Activating Peptide 2 (sequence: H2N-LN(pY)AQLWHA(dPEG8) LTI(pY)ATIRRF-amide). After 30-60-minutes incubation at 25° C., the surrogate substrate DiFMUP (Invitrogen, Cat #D6567) was added to the reaction and activity was determined by a kinetic read using a microplate reader (Envision, Perkin-Elmer or Spectramax M5, Molecular Devices). The excitation and emission wavelengths were 340 nm and 450 nm, respectively. Initial rates were determined from a linear fit of the data, and the inhibitor dose response curves were analyzed using normalized ICso regression curve fitting with control based normalization.
In general, pIC50 refers to the negative decadic logarithm of the IC50, by convention in mol/L. For the compound `N[C@@H]1CCCC12CCN(c1cc(O)c(-c3cccc(Cl)c3Cl)nc1CO)CC2` [Example 1, 5-[(4R)-4-amino-8-azaspiro[4.5]decan-8-yl]-2-(2,3-dichlorophenyl)-6-(hydroxymethyl)pyridin-3-ol], the pIC50 was 6.68. Then `N[C@@H]1CCCC12CCN(c1cc(O)c(Sc3cccc(Cl)c3Cl)nc1CO)CC2` [Example 2, 5-[(1R)-1-amino-8-azaspiro[4.5]decan-8-yl]-2-[(2,3-dichlorophenyl)sulfanyl]-6-(hydroxymethyl)pyridin-3-ol], with 7.43; and `N[C@@H]1CCCC12CCN(c1cnc(-c3cccc(Cl)c3Cl)c(O)c1)CC2` [Example 3, 5-[(1R)-1-amino-8-azaspiro[4.5]decan-8-yl]-2-(2,3-dichlorophenyl)pyridin-3-ol], with 6.13; and `Cc1cc(N2CCC3(CCC[C@H]3N)CC2)c(CO)nc1-c1cccc(Cl)c1Cl` [Example 4, {3-[(1R)-1-amino-8-azaspiro[4.5]decan-8-yl]-6-(2,3-dichlorophenyl)-5-methylpyridin-2-yl}methanol], with 7.16.

Take `Cc1cc(N2CCC3(CCC[C@H]3N)CC2)cnc1-c1cccc(Cl)c1Cl` [Example 5, (1R)-8-[6-(2,3-dichlorophenyl)-5-methylpyridin-3-yl]-8-azaspiro[4.5]decan-1-amine]: the negative logarithm of the IC50 (pIC50) was 6.68.
